Data as given in ChEMBL document CHEMBL1201862, “PubChem BioAssay data set” (2004).
The source made the active and inactive calls.

Tests used:
[1] = molecular target: G-protein coupled receptor 55 (Homo sapiens, UniProt Q9Y2T6); test: inhibition of LPI-stimulated GPR55 beta-arrestin translocation – imaging, U2OS, beta-arrestin-GFP, LPI agonist, primary screen (AID 2013); assay type: functional;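 note: antagonist potency measured as reduced agonist-driven arrestin aggregation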
[2] = molecular target: T1, Small ubiquitin-related modifier 1 (Homo sapiens, UniProt P63165); test: SUMO1 protein-protein binding blockers, potency – biochemical, FRET, dose response (AID 624383); assay type: functional; conditions: read-out: IC50_Mean
[3] = molecular target: T1, Small ubiquitin-related modifier 1; test: SUMO1 protein interaction blockers, potency – biochemical, fluorescence polarization, uHTS hits, dose response (AID 624382); assay type: functional; conditions: read-out: IC50_Mean
P388/ADR = test: cells; assay type: functional; conditions: Mus musculus
P388 = test: cells; assay type: functional; conditions: Mus musculus
SN12K1 = test: cells; assay type: functional; conditions: Homo sapiens
[4] = A Cell Based Secondary Assay To Explore Cytotoxicity of Compounds that Sensitize Mycobacterium Tuberculosis to Beta-Lactam Antibiotics.; assay type: functional
[5] = HEK-293T viability loss after treatment – luminescence, T-cell screen hits, cytotoxicity control for TCR NF-kB inhibitor project, dose response (AID 489026); assay type: functional, cell-based;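 note: cells exposed to compound about 14 hours before the viability readout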
[6] = molecular target: Glyceraldehyde-3-phosphate dehydrogenase (Homo sapiens, UniProt P04406)
Protein Wnt-3a = Protein Wnt-3a (Mus musculus, UniProt P27467); test: antagonism of Wnt3a pathway luciferase reporter – Wnt-LIGHT cells, luminescence, selectivity assay for Gli-SUFU antagonist project, dose response (AID 651570); assay type: functional; conditions: read-out: IC50_Mean;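 note: Wnt-LIGHT reporter cells stimulated with conditioned medium from Wnt3a-producing cells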
[7] = molecular target: Glucose-6-phosphate 1-dehydrogenase (Homo sapiens, UniProt P11413); test: inhibition of Homo sapiens G6PD, dose series – biochemical, fluorescence, selectivity assay for P. falciparum G6PD inhibitor project, dose response (AID 504792); assay type: functional
[8] = molecular target: T2, Rac GTPase-activating protein 1 (Homo sapiens, UniProt Q9H0H5); test: blockers of MgcRacGAP-driven Rac1 GTP hydrolysis – biochemical, ADP Hunter fluorescence, primary and confirmatory, confirmation (AID 624330); assay type: functional
T2 sequence (Q9H0H5 whole entry): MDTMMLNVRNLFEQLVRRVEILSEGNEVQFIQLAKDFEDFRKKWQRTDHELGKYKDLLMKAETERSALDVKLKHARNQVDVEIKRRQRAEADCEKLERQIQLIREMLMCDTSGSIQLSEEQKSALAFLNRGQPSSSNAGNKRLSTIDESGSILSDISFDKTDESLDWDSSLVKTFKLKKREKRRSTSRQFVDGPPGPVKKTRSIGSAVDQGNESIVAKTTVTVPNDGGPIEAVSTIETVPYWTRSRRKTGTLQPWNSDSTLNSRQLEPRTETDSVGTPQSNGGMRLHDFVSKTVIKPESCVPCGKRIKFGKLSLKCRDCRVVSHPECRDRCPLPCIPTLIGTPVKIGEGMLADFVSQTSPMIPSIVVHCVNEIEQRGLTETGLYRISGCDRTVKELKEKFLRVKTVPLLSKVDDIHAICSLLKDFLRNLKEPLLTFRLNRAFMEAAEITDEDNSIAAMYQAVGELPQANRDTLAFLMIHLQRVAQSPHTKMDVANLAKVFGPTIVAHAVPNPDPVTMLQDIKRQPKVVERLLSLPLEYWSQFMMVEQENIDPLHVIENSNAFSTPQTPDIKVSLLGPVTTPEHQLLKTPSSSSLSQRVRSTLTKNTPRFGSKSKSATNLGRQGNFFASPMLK

Leucine aminopeptidase = molecular target: T3, Leucine aminopeptidase (Plasmodium falciparum 3D7, UniProt Q8IL11); test: P. falciparum M17LAP inhibitors, primary screen, biochemical, fluorogenic H-Leu-NHMec substrate, 1536-well (AID 1619); assay type: functional
T3 sequence (Q8IL11 whole entry): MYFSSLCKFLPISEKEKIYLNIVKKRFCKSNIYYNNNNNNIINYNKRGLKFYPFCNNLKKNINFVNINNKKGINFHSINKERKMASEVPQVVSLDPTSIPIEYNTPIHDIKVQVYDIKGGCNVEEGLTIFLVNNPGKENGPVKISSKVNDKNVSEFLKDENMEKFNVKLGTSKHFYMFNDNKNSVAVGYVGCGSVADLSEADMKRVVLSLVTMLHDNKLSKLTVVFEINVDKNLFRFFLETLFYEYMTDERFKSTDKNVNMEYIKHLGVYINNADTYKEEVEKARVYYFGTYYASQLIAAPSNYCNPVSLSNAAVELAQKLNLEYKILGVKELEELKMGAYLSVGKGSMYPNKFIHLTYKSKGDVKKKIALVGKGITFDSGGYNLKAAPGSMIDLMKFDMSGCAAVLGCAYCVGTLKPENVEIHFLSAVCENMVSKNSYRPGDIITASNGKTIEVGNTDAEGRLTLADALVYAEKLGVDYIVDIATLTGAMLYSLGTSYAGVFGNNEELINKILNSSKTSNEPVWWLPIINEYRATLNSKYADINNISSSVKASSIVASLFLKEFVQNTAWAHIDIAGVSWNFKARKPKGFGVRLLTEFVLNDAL

[9] = DRD fibroblast viability loss – cell-based, non-viral oncogenic, luminescence, dose response (AID 1934); assay type: functional; conditions: Homo sapiens
BJ [10] = test: cells; assay type: functional, cell-based; conditions: Homo sapiens
BJ [11] = test: BJ-TERT-LT-ST fibroblast viability loss – cell-based, RAS-independent, luminescence, dose response (AID 1935); assay type: functional; conditions: Homo sapiens;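 note: BJ fibroblasts immortalized with TERT plus LT and ST oncogenes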
BJ [12] = test: BJ-TERT fibroblast viability loss – cell-based, RAS-independent, luminescence, dose response (AID 1933); assay type: functional; conditions: Homo sapiens
cells = assay type: functional
[13] = NIH3T3 cell viability loss – ATP luminescence, mouse fibroblasts, counter-screen, dose response (AID 2010); assay type: functional, cell-based;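 note: cells exposed to compound for about 90 hours before reading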
[14] = Vero E6 cell cytotoxicity, dose response, cytotoxicity control for non-replicating M. tuberculosis project, secondary assay (AID 492998); assay type: functional, VeroE6; conditions: Vero C1008
[15] = Trypanosoma cruzi growth suppression in host cells – NIH3T3 host cells, beta-gal luminescence, confirmation (AID 2044); assay type: functional, cell-based;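 note: intracellular parasites grown in NIH/3T3 mouse fibroblasts as host cells; luminescent beta-galactosidase reporter signal from transgenic T. cruzi replicating inside host cells; inhibitors lower the luminescence signal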
Large T antigen = Large T antigen (Simian virus 40, UniProt P03070); assay type: functional, Betapolyomavirus macacae;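 note: Confirmatory-stage PubChem screen for compounds that inhibit SV40 T antigen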
[16] = molecular target: T4, Carboxy-terminal domain RNA polymerase II polypeptide A small phosphatase 1 (Homo sapiens, UniProt Q9GZU7); test: CTDSP1 inhibitors, concentration-response, biochemical, absorbance readout, ultra-high-throughput screen actives (AID 540297); assay type: functional
T4 sequence (Q9GZU7 whole entry): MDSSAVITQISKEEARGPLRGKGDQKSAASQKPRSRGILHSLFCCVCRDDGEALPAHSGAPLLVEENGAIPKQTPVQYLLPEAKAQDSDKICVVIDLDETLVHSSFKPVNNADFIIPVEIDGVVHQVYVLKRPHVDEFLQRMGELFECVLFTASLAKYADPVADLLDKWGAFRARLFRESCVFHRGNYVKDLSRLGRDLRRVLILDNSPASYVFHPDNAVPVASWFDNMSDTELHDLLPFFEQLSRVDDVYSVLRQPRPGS

[17] = non-specific 3'UTR reporter inhibition in Clone20-Shn3RL – cell-based, Renilla luciferase, cherry-picked, counter-screen for Shn3 inhibitor project, dose response (AID 624133); assay type: functional
Vero = test: cells; assay type: functional; conditions: Chlorocebus sabaeus
[18] = molecular target: Heat shock protein HSP 90-alpha (Homo sapiens, UniProt P07900); assay type: functional, organism-based
[19] = reduction of Shn3 3'UTR-driven luciferase in osteoblasts – cell-based, Clone20 osteoblasts, firefly luciferase, cherry-picked, dose response (AID 624132); assay type: functional;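 note: firefly luciferase luminescence from reporter carrying the Shn3 3'UTR in osteoblasts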
[20] = loss of viability in HepG2 cells – cell-based, CellTiter-Glo, cherry-picked, cytotoxicity control for Shn3 inhibitor project, dose response (AID 624134); assay type: functional
HEK293 = test: EBV LMP1 TES2 canonical NF-kB signalling blockers – cell-based, HEK293, luciferase, cherry-pick, dose response (AID 588343); assay type: functional; conditions: Homo sapiens
INS1 = test: INS-1E survival protection against cytokine death – cell-based, luminescence, retest, dose response (AID 449756); assay type: functional; conditions: Rattus norvegicus;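 note: cell death triggered by IL-1 beta plus TNF-alpha plus IFN-gamma mixture; protective hits raise ATP signal compared with cytokine alone wells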
[21] = blockade of melanocortin 4 receptor signaling – cell-based, plate reader, cherry pick, counter-screen for LGR2 antagonist project, dose response (AID 743444); assay type: functional;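 note: transfected HEK 293 cells stimulated with alpha-MSH peptide; potency of inhibitors of the alpha-MSH evoked signal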
[22] = blockers of bursicon-stimulated LGR2 cAMP reporter – cell-based, HEK293, CRE-luciferase reporter, cherry pick, set 2, dose response (AID 743343); assay type: functional;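 note: transfected cells were stimulated with diluted bursicon conditioned medium after compound addition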
[23] = A549 cell cytotoxicity, dose response, cytotoxicity control, plate reader, cherry-pick, antagonist series (AID 743412); assay type: functional, cell-based
[24] = viability loss in HEK293 cells – cell-based, plate reader, cherry-picked samples, cytotoxicity control, dose response (AID 743446); assay type: functional
[25] = molecular target: T5, Heat shock factor protein 1 (Mus musculus, UniProt P38532); test: enhancement of HSF1-driven luciferase signal – cell-based, NIH3T3, luminescence, dose retest, confirmation (AID 435004); assay type: functional;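 note: stress induced by proteasome inhibitor MG132 added 30 min after compound; luciferase reporter driven by HSF1 response element in NIH3T3 cells; actives raise luminescence as potentiators of the MG132 stress response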
T5 sequence (P38532 whole entry): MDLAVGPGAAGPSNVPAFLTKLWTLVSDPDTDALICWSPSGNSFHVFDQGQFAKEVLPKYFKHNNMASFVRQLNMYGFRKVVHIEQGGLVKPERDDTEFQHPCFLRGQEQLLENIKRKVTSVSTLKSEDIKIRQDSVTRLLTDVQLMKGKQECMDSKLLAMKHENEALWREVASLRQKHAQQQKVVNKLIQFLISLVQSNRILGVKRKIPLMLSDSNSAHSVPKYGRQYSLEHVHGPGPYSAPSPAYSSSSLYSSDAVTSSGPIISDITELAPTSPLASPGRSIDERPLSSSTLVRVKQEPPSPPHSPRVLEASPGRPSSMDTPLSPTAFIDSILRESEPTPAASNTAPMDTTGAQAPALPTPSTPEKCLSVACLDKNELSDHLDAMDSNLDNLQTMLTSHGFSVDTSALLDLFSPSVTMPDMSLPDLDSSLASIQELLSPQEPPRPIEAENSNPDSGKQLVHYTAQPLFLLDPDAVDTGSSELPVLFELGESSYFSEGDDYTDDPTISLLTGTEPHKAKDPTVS

Chain of G-protein coupled receptor 55 (Q9Y2T6 whole entry): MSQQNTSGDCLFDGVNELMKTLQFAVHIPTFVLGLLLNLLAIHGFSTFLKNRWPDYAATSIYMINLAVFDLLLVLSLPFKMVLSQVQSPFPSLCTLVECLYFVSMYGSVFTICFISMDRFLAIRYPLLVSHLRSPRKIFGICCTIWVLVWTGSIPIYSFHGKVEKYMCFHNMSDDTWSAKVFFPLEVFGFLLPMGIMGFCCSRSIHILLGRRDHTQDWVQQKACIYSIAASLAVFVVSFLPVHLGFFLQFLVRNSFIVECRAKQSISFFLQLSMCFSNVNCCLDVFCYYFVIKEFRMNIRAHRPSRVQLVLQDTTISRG
Chain of Glucose-6-phosphate 1-dehydrogenase (P11413 whole entry): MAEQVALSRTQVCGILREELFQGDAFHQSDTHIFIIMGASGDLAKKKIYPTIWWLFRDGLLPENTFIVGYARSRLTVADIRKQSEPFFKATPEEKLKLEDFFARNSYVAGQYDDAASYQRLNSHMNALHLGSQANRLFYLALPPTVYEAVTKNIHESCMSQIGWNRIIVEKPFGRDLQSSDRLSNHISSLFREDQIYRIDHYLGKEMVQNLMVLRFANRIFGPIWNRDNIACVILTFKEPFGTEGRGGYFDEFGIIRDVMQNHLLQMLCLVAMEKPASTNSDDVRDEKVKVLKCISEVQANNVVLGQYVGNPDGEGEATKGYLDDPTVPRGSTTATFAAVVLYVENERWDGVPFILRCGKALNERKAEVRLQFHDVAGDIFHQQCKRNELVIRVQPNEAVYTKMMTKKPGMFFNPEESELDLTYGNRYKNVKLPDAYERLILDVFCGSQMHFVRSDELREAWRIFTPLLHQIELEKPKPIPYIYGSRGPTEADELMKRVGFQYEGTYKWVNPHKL
T1 sequence (P63165 whole entry): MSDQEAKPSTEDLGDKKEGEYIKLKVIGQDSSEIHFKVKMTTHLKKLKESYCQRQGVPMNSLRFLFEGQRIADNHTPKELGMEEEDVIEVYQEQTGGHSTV
Chain of Glyceraldehyde-3-phosphate dehydrogenase (P04406 whole entry): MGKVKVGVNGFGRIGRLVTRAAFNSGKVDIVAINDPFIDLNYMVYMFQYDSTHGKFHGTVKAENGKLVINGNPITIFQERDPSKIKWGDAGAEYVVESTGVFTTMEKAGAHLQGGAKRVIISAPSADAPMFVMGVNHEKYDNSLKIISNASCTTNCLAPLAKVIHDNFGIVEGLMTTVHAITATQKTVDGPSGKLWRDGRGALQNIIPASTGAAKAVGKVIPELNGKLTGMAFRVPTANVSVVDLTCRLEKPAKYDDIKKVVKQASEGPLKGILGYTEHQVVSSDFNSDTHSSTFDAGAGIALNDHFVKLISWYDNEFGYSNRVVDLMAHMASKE
Chain of Protein Wnt-3a (P27467 whole entry): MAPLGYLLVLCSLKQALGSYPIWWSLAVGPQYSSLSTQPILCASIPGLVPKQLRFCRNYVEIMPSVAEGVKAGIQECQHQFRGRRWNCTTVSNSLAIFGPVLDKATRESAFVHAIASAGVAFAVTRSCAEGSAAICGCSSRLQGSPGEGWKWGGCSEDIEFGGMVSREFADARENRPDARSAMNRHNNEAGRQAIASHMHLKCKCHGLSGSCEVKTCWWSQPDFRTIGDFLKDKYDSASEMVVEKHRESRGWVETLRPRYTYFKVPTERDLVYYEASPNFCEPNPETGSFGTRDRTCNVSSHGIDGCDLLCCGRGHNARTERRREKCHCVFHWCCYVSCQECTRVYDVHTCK
Chain of Large T antigen (P03070 whole entry, the tested form may be a part): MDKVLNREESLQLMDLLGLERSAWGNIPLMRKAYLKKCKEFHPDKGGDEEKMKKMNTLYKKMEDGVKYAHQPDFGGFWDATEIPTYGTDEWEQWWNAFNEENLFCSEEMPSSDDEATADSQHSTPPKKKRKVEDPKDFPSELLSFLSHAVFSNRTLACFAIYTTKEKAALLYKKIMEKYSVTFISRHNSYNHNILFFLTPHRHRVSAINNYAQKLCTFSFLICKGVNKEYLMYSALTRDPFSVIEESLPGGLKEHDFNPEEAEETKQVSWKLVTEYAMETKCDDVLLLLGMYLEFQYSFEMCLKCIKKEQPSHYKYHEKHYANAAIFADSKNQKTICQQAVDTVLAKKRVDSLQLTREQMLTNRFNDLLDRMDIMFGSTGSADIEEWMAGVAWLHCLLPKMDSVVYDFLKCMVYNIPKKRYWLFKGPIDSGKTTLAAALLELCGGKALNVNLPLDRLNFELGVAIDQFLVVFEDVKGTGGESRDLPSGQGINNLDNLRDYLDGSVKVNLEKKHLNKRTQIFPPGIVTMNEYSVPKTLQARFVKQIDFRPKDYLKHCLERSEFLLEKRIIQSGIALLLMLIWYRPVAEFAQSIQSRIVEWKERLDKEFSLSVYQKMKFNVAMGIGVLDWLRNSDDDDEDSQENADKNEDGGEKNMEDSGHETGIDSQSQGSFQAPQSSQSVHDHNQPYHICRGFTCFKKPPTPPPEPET

## O=C(CSc1nc(-c2ccccc2)c(-c2ccccc2)[nH]1)N1CCN(S(=O)(=O)c2ccccc2)CC1
[1]
  IC50: 3.67 µM (active)

## CCC(C)[C@@H](CN)NCC1(c2ccccc2)CC1 (some centres undefined)
[2]
  IC50: 18.4 µM (active)
[3]
  IC50: > 66.6 µM (inactive)

## O=c1oc2c(ccc3occc32)c(N2CCCCC2)c1-c1ccccc1
P388/ADR
  GI50: 48.6 µM (inactive)
P388
  GI50: 34.7 µM (inactive)
SN12K1
  GI50: > 100 µM (inactive)

## NS(=O)(=O)c1ccc(Sc2nc3ccccc3s2)c([N+](=O)[O-])c1
[4]
  CC50: 13 µM (active)
[5]
  IC50: > 80 µM (inactive)

## O=C1C(Cl)=C(N2CCN(C/C=C/c3ccccc3)CC2)C(=O)N1c1ccnc(Cl)c1
[6]
  IC50: > 50 µM (inconclusive)

## Cc1nc2ccccc2n1CC(=O)NC(C)C1CC2CCC1C2 (centres undefined)
Protein Wnt-3a
  IC50: 4.3 µM (active)

## COc1cc(NCc2ccccc2)c2ncn(C(C)C)c2c1
[7]
  IC50: > 80 µM (inactive)

## C/C(Cn1nnc([N+](=O)[O-])n1)=N\NC(=O)c1ccccc1O
[7]
  IC50: > 80 µM (inactive)

## CC(=O)C(=Cc1cn(C)c(=O)n(C)c1=O)C(C)=O
P388/ADR
  GI50: 96.6 µM (inactive)
P388
  GI50: 80.7 µM (inactive)
SN12K1
  GI50: 100 µM (inactive)

## O=C(Sc1nnc(O)nc1O)c1ccccc1
[7]
  IC50: > 80 µM (inactive)
[8]
  IC50: 224 µM (active)

## CCCCc1ccc(NC(=O)N[C@H](C(=O)O)C(C)C)cc1
Leucine aminopeptidase
  IC50: 7.04 µM (active)

## COc1ccc(Cl)cc1NC(=O)NNC(=O)c1ccccn1
[4]
  CC50: 28.8 µM (active)

## N#C/C(=C\c1c[nH]nc1-c1ccccc1Br)C(=O)O
[1]
  IC50: 3.58 µM (active)

## CC1C(=O)CC(c2cccs2)N(N=O)C1c1cccs1 (centres undefined)
P388/ADR
  GI50: 17.3 µM (inactive)
P388
  GI50: 20.4 µM (inactive)
SN12K1
  GI50: 57.8 µM (inactive)

## N#Cc1c(C(F)(F)F)cc(-c2ccccc2)nc1SCC(=O)Nc1sc2c(c1C#N)CCC2
[9]
  EC50: > 150 µM (inconclusive)
[4]
  CC50: > 40 µM (active)
BJ [10]
  EC50: > 150 µM (inconclusive)
BJ [11]
  EC50: > 150 µM (not active)
BJ [12]
  EC50: > 150 µM (not active)

## O=C(N/N=C/c1ccc([N+](=O)[O-])s1)c1ccncc1
cells
  IC50: 1 µM (active)
[13]
  EC50: > 60 µM (not active)
[14]
  CC50: 15.6 µM (active)
[15]
  EC50: 0.838 µM (active)

## C[N+]1(CCCCSc2ccc(O)cc2)CCCCC1
Large T antigen
  IC50: 12.1 µM (active)
[16]
  IC50: 6.89 µM (active)

## O=C(c1ccc(-c2ccc(Cl)cc2)o1)N1CCN(S(=O)(=O)c2cccs2)CC1
[4]
  CC50: 26 µM (active)

## CCCCC(=O)NC(c1cccc([N+](=O)[O-])c1)c1ccc2cccnc2c1O (centres undefined)
[17]
  AC50: 2.08 µM (active)
Vero
  CC50: 1.23 µM (active)
[18]
  AC50: 2.69 µM (active)
[19]
  AC50: 1 µM (active)
[20]
  AC50: 2.41 µM (active)
HEK293
  AC50: 5.92 µM (active)

## O=C(Nc1ccc(Cl)cc1)Nc1nnc(CSCc2ccc(Cl)cc2)s1
HEK293
  AC50: 3.92 µM (active)
INS1
  AC50: 3.99 µM (active)

## CCOc1ccc(-c2ccc(SCC)nn2)cc1
[21]
  AC50: 8.8 µM (active)
[22]
  AC50: 7.12 µM (active)
[23]
  AC50: > 52 µM (inactive)
[24]
  AC50: > 52 µM (inactive)

## O=C(N[C@@H](c1ccccc1)[C@@H](O)C(=O)OCc1ccc2c(c1)OCO2)c1ccccc1
P388/ADR
  GI50: 72.6 µM (inactive)
P388
  GI50: 64.7 µM (inactive)
SN12K1
  GI50: > 100 µM (inactive)

## CC1=NNC(=O)C1CCC(=O)N/N=C/c1ccco1 (centres undefined)
Leucine aminopeptidase
  IC50: 69.2 µM (active)
[16]
  IC50: > 80 µM (inactive)

## COc1ccc(C2c3ccc(O)cc3Oc3ncn(Cc4ccco4)c(=N)c32)cc1 (centres undefined)
[1]
  IC50: 1.41 µM (active)
[25]
  EC50: > 260 µM (inactive)
